Earlier results, collected in patent US10307392B2, “Compound and method for treatment of diseases and disorders” (priority 2017, dated 2019).
Read-outs that look alike come from different tables or passages of the source.

Key:
[1] = test system: PBQ-induced writhing in mice; conditions: for reducing analgesia and inflammation: mouse, in vivo
[2] = test system: rat cortical neuron cultures exposed to toxic levels of the neurotransmitter, glutamate; conditions: for prevention of glutamate toxicity: isolated or synthetic cannabinoid, in vitro neuronal cultures exposed to glutamate; for NMDA, AMPA and kainate receptor mediated neurotoxicity: not affected by cannabinoid receptor antagonist
[3] = cyclic voltametry and fenton reaction-based system
[4] = test system: subjects with noninsulin-treated type 2 diabetes
[5] = test system: females with severe somatoform and dysautonomic syndrome following HPV vaccination; parameters: dose or concentration left out as unconfirmed; conditions: up to a maximum dose of CBD per day; 12 females
Parkinson's disease = conditions: oral, started with 150 mg/day, 4 weeks
MS patients = conditions: 13 weeks' follow-up
[6] = test system: patients receiving Marinol
spasticity = conditions: in vivo

For CCCCCc1cc(O)c2c(c1)OC(C)(C)c1ccc(C)cc1-2 [CBN, cannabinol], the “reducing analgesia and inflammation” value [1] is given as “least effective”.
In the case of C=C(C)[C@@H]1CCC(C)=C[C@H]1c1c(O)cc(CCCCC)cc1O [CBD, cannabidiol], the “inhibition of PBQ-induced writhing” value ([1]; oral administration, mice) is listed as “most effective”, the “protective capacity against glutamate toxicity, head to head with other antioxidants” value [2] is listed as “superior to both alpha-tocopherol and ascorbate” and the “prevention of glutamate toxicity” value [2] is listed as “prevented to some extent”. The “NMDA, AMPA and kainate receptor mediated neurotoxicity” value [2] was “reduced”, the antioxidant activity [3] was “potent antioxidants” and the tolerability ([4]; 200 mg CBD per day, 62 subjects in study) was “well tolerated”. For the same compound, the “hydroperoxide toxicity in neurons” value (neuronal cultures) was “reduce hydroperoxide toxicity”, the tolerability [5] was “well tolerated” and the “adverse effect during the treatment” value (Parkinson's disease) was “no adverse effect”.
For CCCc1cc(O)c2c(c1)OC(C)(C)[C@@H]1CCC(C)=C[C@@H]21 [THCV], the tolerability ([4]; 10 mg THCV per day) is listed as “well tolerated”.
For CCCCCc1cc(O)c2c(c1)OC(C)(C)[C@@H]1CCC(C)=C[C@@H]21 [THC, delta-9-tetrahydrocannabinol], the “Mean (SD) change in total Ashworth score (baseline minus follow-up)” value (MS patients; placebo 0.92 (6.56)) is listed as 1.86 (7.95), the “Mean (SD) change in Ashworth score, lower-body muscle groups” value (MS patients; placebo 1.04 (4.20)) is listed as 1.39 (5.21) and the “Mean (SD) change in Ashworth score, upper-body muscle groups” value (MS patients; placebo −0.11 (4.04)) is listed as 0.48 (4.70). The “reducing analgesia and inflammation” value [1] was “least effective”, the “prevention of glutamate toxicity” value [2] was “prevented to some extent” and the “NMDA, AMPA and kainate receptor mediated neurotoxicity” value [2] was “reduced”. For the same compound, the antioxidant activity [3] was “potent antioxidants”.
In the case of CCCCCc1cc(O)c2c(c1)OC(C)(C)[C@@H]1CCC(C)=C[C@@H]21 [Marinol], the “patients reporting cannabinoid dose-related psychotropic effect” value ([6]; antiemetic clinical trials) is listed as 24%, the “patients reporting a CNS adverse reaction” value ([6]; during the first 2 weeks) is listed as “About 25%” and the “patients reporting a CNS adverse reaction” value ([6]; each week for the next 6 weeks) is listed as “about 4%”. The “patients reporting cannabinoid dose-related psychotropic effect” value ([6]; lower dose appetite stimulant clinical trials) was 8%, the “patients reporting adverse experiences involving the CNS” value ([6]; patients with AIDS, placebo-controlled clinical trials) was 33% and the reducing spasticity (spasticity) was “positive results”.
For CCCCCCC(C)(C)c1cc(O)c2c(c1)OC(C)(C)C1CCC(=O)CC21 (stereo not shown) [Cesamet], the reducing spasticity (spasticity) is listed as “positive results”.
